Results published in article PMC9861092, “Napyradiomycin A4 and Its Relate Compounds, a New Anti-PRV Agent and Their Antibacterial Activities, from Streptomyces kebangsaanensis WS-68302” (Molecules, 2023).
In brackets after ≈: the same amount, converted by molar mass. Entries after “also recorded” stand apart in the source; their conditions may differ. Structures can show the parent of a compound that is named as a salt.

Legend:
PRV (Pseudorabies virus) [1] = test: microbe, parasite or virus in culture; conditions: Suid alphaherpesvirus 1, MARC145, 72 h, read-out: IC50 against PRV
in vitro = conditions: African green monkey
[2] = test system: Staphylococcus aureus ATCC 25923; test: microbe, parasite or virus in culture; type: cell-based; conditions: for MIC: Staphylococcus aureus, ATCC25923, read-out: MIC S. aureus
Streptococcus suis SC19 = test: microbe, parasite or virus in culture; type: cell-based; conditions: for MIC: Streptococcus suis, SC19, read-out: MIC S. suis
[3] = test system: Erysipelothrix rhusiopathiae WH13013; test: microbe, parasite or virus in culture; type: cell-based; conditions: for MIC: Erysipelothrix rhusiopathiae, WH13013, read-out: MIC E. rhusiopathiae
PRV protein = type: cell-based, Pseudorabies virus
PRV (Pseudorabies virus) [4] = test system: PRV (Pseudorabies virus)
[5] = test system: Bacillus subtilis ATCC6633; conditions: cited from earlier work
[6] = test system: Escherichia coli ATCC 25922; type: cell-based

Row | Compound | IC50 (PRV (Pseudorabies virus) [1]) [µM] | CC50 (in vitro) [µM] | MIC [2] [µg/mL] | MIC S. suis (Streptococcus suis SC19) | MIC (Streptococcus suis SC19) [µg/mL] | MIC E. rhusiopathiae [3] | MIC [3] [µg/mL] | Suppression of PRV protein (green fluorescence intensity) in indirect immunofluorescence assay (PRV protein) | TI (therapeutic index = CC50/IC50) (PRV (Pseudorabies virus) [4]) | MIC against Bacillus subtilis ATCC6633 [5] [µg/mL] | MIC S. aureus [2] | IC50 against PRV (PRV (Pseudorabies virus) [4]) | MIC E. coli [6] [µg/mL]
1 | CC(=CCC12OC(C)(C)C(Cl)CC1(Cl)C(=O)c1c(O)cc(O)cc1C2=O)CCC(=O)C(C)C (stereo not shown) [Compound 1, napyradiomycin A4] | 2.06 ± 0.343 | 30.8 ± 5.57 | 25 (≈ 50.3 µM) | weak activity | 100 (≈ 201 µM) | 50 µg/mL (≈ 101 µM) | 25 to 50 (≈ 50.3 to 101 µM) | strongest inhibition; also recorded: significantly suppressed | 14.98 |  |  |  | 
2 | CC1(C)S[C@@H]2[C@H](NC(=O)Cc3ccccc3)C(=O)N2[C@H]1C(=O)O [Penicillin G, Penicillin G sodium salt, reference compound] |  |  |  |  | 12.5 |  | 50 |  |  |  |  |  | 
3 | CC(C)=CC[C@]12O[C@@]1(C/C=C(\C)CC/C=C(\C)C(=O)O)C(=O)c1cc(O)cc(O)c1C2=O [Compound 6, A80915G-8″-acid] | 26.5 ± 5 | 46.3 ± 7.36 | 50 (≈ 114 µM) |  | 50 (≈ 114 µM) | 25 µg/mL (≈ 56.8 µM) | 25 to 50 (≈ 56.8 to 114 µM) |  |  | 64 (≈ 145 µM) |  |  | 
4 | CC(C)=CCC/C(C)=C/C[C@]1(O)C(=O)c2cc(O)cc(O)c2C(=O)[C@@]1(Cl)CC=C(C)C [Compound 7, naphthomevalin] | > 90 | > 0.045 | < 0.625 |  | 20 (≈ 44.7 µM) |  | 40 (≈ 89.5 µM) |  |  |  | potent activities | did not display any apparent anti-PRV activity | 
5 | C=C1CC[C@H](Cl)C(C)(C)C1C[C@@]12OC(C)(C)[C@H](Cl)C[C@]1(Cl)C(=O)c1c(O)cc(O)cc1C2=O (stereo partly shown) [Compound 4, napyradiomycin B1] | 13.3 ± 1.11 | 19.6 ± 2.82 | < 0.78 |  | 6.25 (≈ 12.1 µM) | 50 µg/mL (≈ 96.9 µM) | 25 to 50 (≈ 48.5 to 96.9 µM) | significantly suppressed |  |  | potent activities |  | 
6 | CC(C)=CCC/C(C)=C/C[C@@]12OC(C)(C)[C@H](Cl)C[C@]1(Cl)C(=O)c1c(O)cc(O)cc1C2=O [Compound 3, napyradiomycin A1] | 2.21 ± 0.375 | 5.79 ± 0.708 | < 0.78 |  | 3.12 (≈ 6.49 µM) | 50 µg/mL (≈ 104 µM) | 25 to 50 (≈ 51.9 to 104 µM) | significantly suppressed | 2.62 |  | potent activities |  | 
7 | CC(C)=CCC/C(C)=C/C[C@@]12O[C@]1(CC=C(C)C)C(=O)c1c(O)cc(O)cc1C2=O [Compound 5, A80915G] | 8.26 ± 0.902 | 16.7 ± 1.12 |  |  | 25 (≈ 60.9 µM) | 25 µg/mL (≈ 60.9 µM) | 25 to 50 (≈ 60.9 to 122 µM) |  | 2.05 |  |  |  | 
8 | NC(=O)c1ncn([C@@H]2O[C@H](CO)[C@@H](O)[C@H]2O)n1 [Ribavirin, reference compound] | 58 | > 164 |  |  |  |  |  |  | >2.82 |  |  |  | 
9 | CC(C)=CCC12OC1(CC=C(C)C(O)CC=C(C)CO)C(=O)c1cc(O)cc(O)c1C2=O (stereo not shown) [Compound 2, A80915H] | > 90 | > 90 |  | did not show any activity and - |  | did not show any activity and - |  |  |  |  | did not show any activity and - | did not display any apparent anti-PRV activity | 
10 | CO/N=C(\C(=O)N[C@@H]1C(=O)N2C(C(=O)[O-])=C(C[n+]3cccc4c3CCC4)CS[C@H]12)c1csc(N)n1.O=S(=O)(O)O [Cefpirome Sulfate, cefpirome sulfate, reference compound] |  |  |  | <0.78 µg/mL |  | <0.78 µg/mL |  |  |  |  | <0.78 µg/mL |  | 25
